Test results as given in patent US11944626B2, “Small molecule inhibitors of ALDH and uses thereof” (The Regents of the University of Michigan, priority 2016, dated 2024).
Counter-ions that a name gives are not always drawn.

What was measured:
ALDH1A3 = molecular target: T1, ALDH1A3 (Homo sapiens, UniProt P47895); experiment: Inhibition of ALDH isoenzymes (NAD(P)H formation at 340 nm, purified recombinant enzyme); type: biochemical; conditions: for IC50: 100-200 nM enzyme, 200 μM NAD+, 100 μM propionaldehyde, pH 7.5, 25° C.; for remaining activity at 20 µM: compound at 20 μM, read-out: ALDH1A3 % Control at 20 μM
T1 sequence (P47895 1-512): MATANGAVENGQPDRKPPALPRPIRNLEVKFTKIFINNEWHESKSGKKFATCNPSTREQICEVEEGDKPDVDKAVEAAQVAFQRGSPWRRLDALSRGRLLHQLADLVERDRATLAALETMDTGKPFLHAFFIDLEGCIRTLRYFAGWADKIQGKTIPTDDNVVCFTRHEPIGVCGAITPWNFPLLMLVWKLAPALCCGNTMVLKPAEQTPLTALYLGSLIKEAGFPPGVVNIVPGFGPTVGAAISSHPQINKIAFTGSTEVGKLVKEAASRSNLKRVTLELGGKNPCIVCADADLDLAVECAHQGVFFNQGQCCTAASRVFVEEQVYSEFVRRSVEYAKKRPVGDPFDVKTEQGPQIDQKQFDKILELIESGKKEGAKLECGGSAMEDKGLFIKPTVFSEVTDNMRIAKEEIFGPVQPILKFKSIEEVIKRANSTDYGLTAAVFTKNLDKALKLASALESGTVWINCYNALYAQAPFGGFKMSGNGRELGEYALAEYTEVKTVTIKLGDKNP

ALDH1A2 = molecular target: T2, ALDH1A2 (Homo sapiens, UniProt O94788); experiment: as above; type: biochemical; conditions: for IC50: 100-200 nM enzyme, 200 μM NAD+, 100 μM propionaldehyde, pH 7.5, 25° C.; for remaining activity at 20 µM: compound at 20 μM, read-out: ALDH1A2 % Control at 20 μM; for ALDH1A2: compound is a substrate: result in words
T2 sequence (O94788 1-518): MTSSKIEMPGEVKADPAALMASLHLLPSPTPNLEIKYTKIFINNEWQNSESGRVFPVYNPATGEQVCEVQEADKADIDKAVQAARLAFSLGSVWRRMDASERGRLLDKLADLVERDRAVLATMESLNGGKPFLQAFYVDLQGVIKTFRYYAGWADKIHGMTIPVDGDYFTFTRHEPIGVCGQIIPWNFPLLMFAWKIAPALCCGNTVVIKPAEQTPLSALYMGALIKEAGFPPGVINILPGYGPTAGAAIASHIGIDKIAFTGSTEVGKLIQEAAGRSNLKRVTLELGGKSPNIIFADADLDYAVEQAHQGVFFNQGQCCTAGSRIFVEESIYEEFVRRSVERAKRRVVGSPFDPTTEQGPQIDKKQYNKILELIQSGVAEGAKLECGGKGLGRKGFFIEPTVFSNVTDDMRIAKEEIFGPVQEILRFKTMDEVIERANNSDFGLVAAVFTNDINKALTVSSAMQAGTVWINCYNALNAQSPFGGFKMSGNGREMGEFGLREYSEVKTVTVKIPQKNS

ALDH1A1 = molecular target: T3, ALDH1A1 (Homo sapiens, UniProt P00352); experiment: as above; type: biochemical; conditions: for IC50: 100-200 nM enzyme, 200 μM NAD+, 100 μM propionaldehyde, pH 7.5, 25° C.; for remaining activity at 20 µM: compound at 20 μM, read-out: ALDH1A1 % Control at 20 μM; for ALDH1A1: compound is a substrate: result in words in place of IC50
T3 sequence (P00352 1-501): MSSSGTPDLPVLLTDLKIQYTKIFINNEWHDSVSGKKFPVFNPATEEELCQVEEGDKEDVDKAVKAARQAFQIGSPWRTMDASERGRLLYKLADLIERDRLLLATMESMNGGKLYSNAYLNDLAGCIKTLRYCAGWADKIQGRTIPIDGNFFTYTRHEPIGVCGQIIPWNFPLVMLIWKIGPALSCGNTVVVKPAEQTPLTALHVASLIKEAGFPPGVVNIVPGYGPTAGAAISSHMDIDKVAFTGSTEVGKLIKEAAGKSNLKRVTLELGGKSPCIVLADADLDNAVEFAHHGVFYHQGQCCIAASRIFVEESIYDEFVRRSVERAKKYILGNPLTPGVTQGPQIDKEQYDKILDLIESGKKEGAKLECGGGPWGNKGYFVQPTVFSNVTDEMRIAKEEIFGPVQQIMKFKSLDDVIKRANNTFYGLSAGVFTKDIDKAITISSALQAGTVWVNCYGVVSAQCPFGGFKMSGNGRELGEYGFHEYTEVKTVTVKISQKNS

ALDH2 = molecular target: T4, ALDH2 (Homo sapiens, UniProt P05091); experiment: as above; type: biochemical; conditions: compound at 20 μM; read-out: ALDH2 % Control at 20 μM;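 further: run at 25 °C, started by adding substrate after 2 min preincubation, with 100-200 nM ALDH2, 200 µM NAD+, 100 µM propionaldehyde, 1% DMSO in BES buffer pH 7.5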
T4 sequence (P05091 18-517): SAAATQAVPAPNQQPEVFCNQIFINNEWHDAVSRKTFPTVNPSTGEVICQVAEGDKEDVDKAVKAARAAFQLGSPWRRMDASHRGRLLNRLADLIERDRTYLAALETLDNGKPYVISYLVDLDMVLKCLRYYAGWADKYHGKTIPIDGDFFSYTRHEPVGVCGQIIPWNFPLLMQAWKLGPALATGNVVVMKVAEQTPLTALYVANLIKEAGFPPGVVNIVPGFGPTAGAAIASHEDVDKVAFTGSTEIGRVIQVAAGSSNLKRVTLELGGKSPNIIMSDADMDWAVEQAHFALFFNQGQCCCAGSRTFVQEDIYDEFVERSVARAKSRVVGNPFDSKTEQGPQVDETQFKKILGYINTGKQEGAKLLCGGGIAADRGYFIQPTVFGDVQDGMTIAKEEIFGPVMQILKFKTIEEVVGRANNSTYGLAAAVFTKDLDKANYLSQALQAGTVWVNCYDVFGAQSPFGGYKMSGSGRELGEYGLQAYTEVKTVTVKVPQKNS

OVSAHO = OVSAHO Cell Viability; type: cell-based; conditions: for OVSAHO Cell Viability (50 μM) % CD133 + % ctrl / OVSAHO Cell Viability (30 μM) % CD133 + % ctrl: CD133+ cells; for OVSAHO Cell Viability (50 μM) Total Cell % ctrl / OVSAHO Cell Viability (30 μM) Total Cell % ctrl: total cells

| SMILES | IC50 (ALDH1A3) | IC50 (ALDH1A2) | IC50 (ALDH1A1) | remaining activity at 20 µM (ALDH2) | remaining activity at 20 µM (ALDH1A3) | remaining activity at 20 µM (ALDH1A2) | remaining activity at 20 µM (ALDH1A1) | other results |
| --- | --- | --- | --- | --- | --- | --- | --- | --- |
| CCn1cc2c(=O)n(-c3ccccc3)c(SCc3cccc(F)c3)nc2n1 [Example 15, 2-ethyl-6-((3-fluorobenzyl)thio)-5-phenyl-2H-pyrazolo[3,4-d]pyrimidin-4(5H)-one] | 0.153 µM | 0.6 µM | 0.172 µM | 98% |  |  |  | OVSAHO Cell Viability (50 μM) % CD133 + % ctrl (OVSAHO): 83 % ctrl; OVSAHO Cell Viability (50 μM) Total Cell % ctrl (OVSAHO): 51 % ctrl |
| CCC(Sc1nc2c(cnn2C)c(=O)n1-c1ccccc1)c1ccccc1 (stereo not drawn) [Example 70, 1-methyl-5-phenyl-6-((1-phenylpropyl)thio)-1H-pyrazolo[3,4-d]pyrimidin-4(5H)-one] |  |  |  | 90% | -10% | -14% | -5% | OVSAHO Cell Viability (30 μM) % CD133 + % ctrl (OVSAHO): 56% ctrl; OVSAHO Cell Viability (30 μM) Total Cell % ctrl (OVSAHO): 17% ctrl |
| O=c1c2cn(CC3CNC3)nc2nc(SCc2cccc(F)c2)n1-c1ccccc1 [Example 68, 3-((6-((3-fluorobenzyl)thio)-4-oxo-5-phenyl-4,5-dihydro-2H-pyrazolo[3,4-d]pyrimidin-2-yl)methyl)azetidin-1-ium sulfate] |  |  |  | 93% | 10% | 14% | 14% | OVSAHO Cell Viability (30 μM) Total Cell % ctrl (OVSAHO): 16% ctrl |
| CCn1ncc2c(=O)n(-c3ccccc3)c(SCc3cccc(F)c3)nc21 [Example 14, 1-ethyl-6-((3-fluorobenzyl)thio)-5-phenyl-1H-pyrazolo[3,4-d]pyrimidin-4(5H)-one] | 0.25 µM | 0.4 µM | 0.32 µM | 82% |  |  |  | OVSAHO Cell Viability (50 μM) % CD133 + % ctrl (OVSAHO): 39 % ctrl; OVSAHO Cell Viability (50 μM) Total Cell % ctrl (OVSAHO): 13 % ctrl |
| O=c1c2cn(CC3COC3)nc2nc(OCc2cccc(F)c2)n1-c1ccccc1 [Example 63] |  |  | 2.28 µM | 102% |  |  |  | remaining activity at 5 µM (ALDH1A3; compound at 5 μM (footnote *), read-out: ALDH1A3 % Control at 5 μM): 61%; remaining activity at 5 µM (ALDH1A2; compound at 5 μM (footnote *), read-out: ALDH1A2 % Control at 5 μM): 43%; OVSAHO Cell Viability (30 μM) % CD133 + % ctrl (OVSAHO): 81% ctrl; OVSAHO Cell Viability (30 μM) Total Cell % ctrl (OVSAHO): 18% ctrl |
| Cn1ncc2c(=O)n(-c3ccccc3)c(SCc3cccc(C=O)c3)nc21 [Example 58, 3-(((1-methyl-4-oxo-5-phenyl-4,5-dihydro-1H-pyrazolo[3,4-d]pyrimidin-6-yl)thio)methyl)benzaldehyde] | 0.764 µM | 3.4 µM |  | 102% |  |  |  | ALDH1A2: compound is a substrate (ALDH1A2): (slow; ALDH1A1: compound is a substrate (ALDH1A1): substrate |
| Cn1ncc2c(=O)n(-c3ccccc3)c(SCC(=O)c3ccccc3)nc21 [Example 52, 1-methyl-6-((2-oxo-2-phenylethyl)thio)-5-phenyl-1H-pyrazolo[3,4-d]pyrimidin-4(5H)-one] | 0.095 µM | 0.13 µM | 0.547 µM | 91% |  |  |  |  |
| CC(Sc1nc2c(cnn2C)c(=O)n1-c1ccccc1)c1cccc(F)c1 (stereo not drawn) [Example 71, 6-((1-(3-fluorophenyl)ethyl)thio)-1-methyl-5-phenyl-1H-pyrazolo[3,4-d]pyrimidin-4(5H)-one] |  |  |  | 94% | -10% | -8% | -4% |  |
| CC(Sc1nc2nn(C3COC3)cc2c(=O)n1-c1ccccc1)c1ccccc1 (stereo not drawn) [Example 74, 2-(oxetan-3-yl)-5-phenyl-6-((1-phenylethyl)thio)-2H-pyrazolo[3,4-d]pyrimidin-4(5H)-one] |  |  |  | 96% | 0% | 0% | 3% |  |
| Cn1ncc2c(=O)n(C3CCC3)c(SCc3cccc(F)c3)nc21 [Example 46, 5-cyclobutyl-6-((3-fluorobenzyl)thio)-1-methyl-1H-pyrazolo[3,4-d]pyrimidin-4(5H)-one] |  |  |  | 96% | 73% | 14% | 28% |  |
| Cn1ncc2c(=O)n(-c3ccccc3)c(CNCc3cccc(F)c3)nc21 [Example 26, 6-(((3-fluorobenzyl)amino)methyl)-1-methyl-5-phenyl-1H-pyrazolo[3,4-d]pyrimidin-4(5H)-one] |  |  |  | 98% | 74% | 77% | 28% |  |
| CC(Sc1nc2c(cnn2C2COC2)c(=O)n1-c1ccccc1)c1ccccc1 (stereo not drawn) [Example 73, 1-(oxetan-3-yl)-5-phenyl-6-((1-phenylethyl)thio)-1H-pyrazolo[3,4-d]pyrimidin-4(5H)-one] |  |  |  | 95% | 1% | 0% | 3% |  |
| Cc1ccccc1-n1c(NCCc2cccc(F)c2)nc2c(cnn2C)c1=O [Example 23, 6-((3-fluorophenethyl)amino)-1-methyl-5-(o-tolyl)-1H-pyrazolo[3,4-d]pyrimidin-4(5H)-one] |  |  |  | 94% | 100% | 68% | 66% |  |
| Cn1ncc2c(=O)n(-c3ccccc3)c(SCc3ccccc3)nc21 [Example 55, 6-(benzylthio)-1-methyl-5-phenyl-1H-pyrazolo[3,4-d]pyrimidin-4(5H)-one] | 0.203 µM | 0.139 µM | 0.387 µM | 91% |  |  |  |  |
| Cn1ncc2c(=O)n(C3CCCCC3)c(SCc3cccc(F)c3)nc21 [Example 44, 5-cyclohexyl-6-((3-fluorobenzyl)thio)-1-methyl-1H-pyrazolo[3,4-d]pyrimidin-4(5H)-one] |  |  |  | 177% | 43% | 36% | 37% |  |
| CCn1cc2c(=O)n(-c3ccccc3C)c(SCc3cccc(F)c3)nc2n1 [Example 6, 2-ethyl-6-((3-fluorobenzyl)thio)-5-(o-tolyl)-2H-pyrazolo[3,4-d]pyrimidin-4(5H)-one] | 7.5 µM | 5.2 µM | 0.4 µM | 91% |  |  |  |  |
| Cn1ncc2c(=O)n(-c3ccccc3)c(SCc3ccc(C=O)cc3)nc21 [Example 59, 4-(((1-methyl-4-oxo-5-phenyl-4,5-dihydro-1H-pyrazolo[3,4-d]pyrimidin-6-yl)thio)methyl)benzaldehyde] | 0.236 µM |  |  | 89% |  |  |  | ALDH1A2: compound is a substrate (ALDH1A2): substrate; ALDH1A1: compound is a substrate (ALDH1A1): substrate |
